Source: patent US20080213341A1, “Butyric Acid Esters of Carbohydrates and Carbohydrate Polyols” (priority 2005, published 2008)
Like-named read-outs stand apart in the source and are kept apart here.

Assays:
[1] = tested on: intestinal bacteria of the human large intestine; assay: In vitro fermentation with intestinal bacteria of the human large intestine (feces suspension); format: in vitro ADME; details: for increase of the butyrate in the fermentation broths: after a short fermentation time; for butyrate release/formation (in words): in vitro fermentation with human intestinal bacteria; for x-fold increase in the butyrate concentration in the fermentation medium in comparison to the nonesterified carbohydrate or carbohydrate polyol: in vitro fermentation
Experimental: It was investigated in in vitro fermentation experiments with intestinal bacteria of the human large intestine whether butyric acid esters listed above are hydrolyzed and metabolized by bacteria of the large intestine or their enzymes and butyrate is released in the […]. The following medium was used for in vitro fermentation experiments: [table] 9 ml of the […] medium described above were treated with 0.5% (w/v) of the butyric acid ester to be tested and 0.2% (w/v) of taurocholic acid. This medium was subsequently inoculated with 1 ml of a 10% strength feces suspension (mixed feces of three subjects) in anaerobic 50 mmol/l phosphate buffer, pH 7.0, to which 0.5 g/l of cysteine/HCl had been added as a reductant. Hungate tubes were incubated at 37° C. with shaking for 72 h, samples were taken at different times and these were investigated for short-chain fatty acids, lactic acid and pH. The extent of the metabolization of the test substances was carried out by means of the determination of the release of butyrate.

[2] = oral administration / uptake via food; cited from earlier work
colon cancer = details: orally administered; cited from earlier work
[3] = 0.5% (w/v) substrate, human feces suspension, 37° C., 72 h

## Tetrabutyrylsorbitol
[1]; [3]
  g of butyrate/g of substrate: 0.7 g of butyrate/g of substrate
[1]
  increase of the butyrate in the fermentation broths: strong increase
  butyrate release/formation (in words): high butyrate formation
[1]; 72 h
  x-fold increase in the butyrate concentration in the fermentation medium in comparison to the nonesterified carbohydrate or carbohydrate polyol: 2.7 x-fold
[1]; 72 h, listed as tetrabutyrylsorbitol
  x-fold increase in the butyrate concentration in the fermentation medium in comparison to the nonesterified carbohydrate or carbohydrate polyol: more than twofold

## Pentabutyrylisomalt
[1]; [3]
  g of butyrate/g of substrate: 0.2 g of butyrate/g of substrate
[1]; 72 h
  x-fold increase in the butyrate concentration in the fermentation medium in comparison to the nonesterified carbohydrate or carbohydrate polyol: 1.3 x-fold

## CCCC(=O)O [butyrate, butyric acid]
[2]
  cleavage / absorption in the small intestine: rapidly and completely absorbed in the small intestine

## Octabutyrylisomalt
[1]; [3]
  g of butyrate/g of substrate: 0.1 g of butyrate/g of substrate
[1]; 0.5% (w/v) substrate, human feces suspension, 37° C., 72 h, listed as octabutyrylisomalt
  g of butyrate/g of substrate: about 0.1 g of butyrate/g of substrate
[1]; 72 h
  x-fold increase in the butyrate concentration in the fermentation medium in comparison to the nonesterified carbohydrate or carbohydrate polyol: 0.5 x-fold

## Pentabutyrylxylitol
[1]; [3]
  g of butyrate/g of substrate: 0.4 g of butyrate/g of substrate
[1]
  butyrate release/formation (in words): Large amounts of butyrate were also released
[1]; 72 h
  x-fold increase in the butyrate concentration in the fermentation medium in comparison to the nonesterified carbohydrate or carbohydrate polyol: 1.5 x-fold

## Isomalt [reference compound]
[1]; [3]
  g of butyrate/g of substrate: 0.2 g of butyrate/g of substrate
[1]; 0.5% (w/v) substrate, human feces suspension, 37° C., 72 h, listed as isomalt
  g of butyrate/g of substrate: approximately 0.2 g of butyrate/g of substrate

## Heptabutyryldiacetylisomalt
[1]; [3]
  g of butyrate/g of substrate: 0.1 g of butyrate/g of substrate
[1]; 0.5% (w/v) substrate, human feces suspension, 37° C., 72 h, listed as heptabutyryldiacetylisomalt
  g of butyrate/g of substrate: about 0.1 g of butyrate/g of substrate
[1]; 72 h
  x-fold increase in the butyrate concentration in the fermentation medium in comparison to the nonesterified carbohydrate or carbohydrate polyol: 0.4 x-fold

## Hexabutyrylsorbitol
[1]; [3]
  g of butyrate/g of substrate: 0.2 g of butyrate/g of substrate
[1]; 72 h
  x-fold increase in the butyrate concentration in the fermentation medium in comparison to the nonesterified carbohydrate or carbohydrate polyol: 0.8 x-fold

## Tributyrylsorbitol
[1]; [3]
  g of butyrate/g of substrate: 0.7 g of butyrate/g of substrate
[1]
  increase of the butyrate in the fermentation broths: strong increase
  butyrate release/formation (in words): high butyrate formation
[1]; 72 h
  x-fold increase in the butyrate concentration in the fermentation medium in comparison to the nonesterified carbohydrate or carbohydrate polyol: 2.8 x-fold
[1]; 72 h, listed as tributyrylsorbitol
  x-fold increase in the butyrate concentration in the fermentation medium in comparison to the nonesterified carbohydrate or carbohydrate polyol: more than twofold

## Tetrabutyrylxylitol
[1]; [3]
  g of butyrate/g of substrate: 0.7 g of butyrate/g of substrate
[1]
  butyrate release/formation (in words): high butyrate formation
[1]; 72 h
  x-fold increase in the butyrate concentration in the fermentation medium in comparison to the nonesterified carbohydrate or carbohydrate polyol: 2.5 x-fold
[1]; 72 h, listed as tetrabutyrylxylitol
  x-fold increase in the butyrate concentration in the fermentation medium in comparison to the nonesterified carbohydrate or carbohydrate polyol: more than two-fold

## CCCC(=O)OCC(COC(=O)CCC)OC(=O)CCC [tributyrin]
Colon cancer
  activity in the prevention of colon cancer: inactive
[2]
  cleavage / absorption in the small intestine: rapidly cleaved in the anterior small intestine

## Tributyrylxylitol
[1]; [3]
  g of butyrate/g of substrate: 0.6 g of butyrate/g of substrate
[1]
  butyrate release/formation (in words): Large amounts of butyrate were also released
[1]; 72 h
  x-fold increase in the butyrate concentration in the fermentation medium in comparison to the nonesterified carbohydrate or carbohydrate polyol: 2.2 x-fold

## Tetrabutyryldiacetylsorbitol
[1]
  g of butyrate/g of substrate: 0.3 g of butyrate/g of substrate
